From patent publication US10770169B2, “Method of providing a treatment to a subject based on a dynamic pathway map” (THE REGENTS OF THE UNIVERSITY OF CALIFORNIA, priority 2010, dated 2020)
Read-outs that look alike come from different tables or passages of the source.

Columns and labels:
[1] = test system: panel of 55 breast cancer cell lines; assay: Cell growth inhibition assay (Cell Titer Glo, 72 h, 9 doses; GI50, TGI, LC50); assay type: cell-based, human; settings: Homo sapiens, read-out: GI50 (converted)
[2] = test system: luminal, basal, claudin-low and ERBB2AMP breast cancer cell lines; assay: Associations of clinically relevant subtypes and response (non-parametric ANOVA or t-test on GI50 ranks); assay type: cell-based, human; settings: Table 6; most sensitive subtype, FDR p<0.20
Text: A central premise of this study is that associations between responses and molecular subtypes observed in preclinical cell line analyses will be recapitulated in the clinic in instances where the predictive molecular features in the cell lines are mirrored in human tumors. We established response-subtype associations by using non-parametric ANOVAs to compare […] values across transcriptional and genomics subtypes.
Differences between GI50s of the groups were compared with a non-parametric ANOVA or t-test, as appropriate, on the ranks. We combined the p-values for the three sets of tests and used false discovery rate (FDR) to correct for multiple testing. For the three-sample test, we performed a post-hoc analysis on the compounds with a significant class effect by comparing each group to all others to determine which group was most sensitive. The p-values for the post-hoc test were FDR-corrected together. In all cases, FDR p<0.20 was deemed significant. […] Analyses were performed in R.

Structure (SMILES): CS(=O)(=O)CCNCc1ccc(-c2ccc3ncnc(Nc4ccc(OCc5cccc(F)c5)c(Cl)c4)c3c2)o1 [Lapatinib]
- GI50 ([1]; AU565, cell line AU565, censored GI50 values): 0.398 µM
- GI50 ([1]; AU565, cell line AU565): 0.398 µM
- GI50 ([1]; BT-20, cell line BT20): 16.6 µM
- GI50 ([1]; BT-474, cell line BT474, censored GI50 values): 0.398 µM
- GI50 ([1]; BT-474, cell line BT474): 0.398 µM
- GI50 ([1]; BT-483, cell line BT483): 16.6 µM
- GI50 ([1]; BT-549, cell line BT549): 16.6 µM
- GI50 ([1]; CAMA-1, cell line CAMA1): 16.6 µM
- GI50 ([1]; HCC38, cell line HCC38): 16.6 µM
- GI50 ([1]; HCC70, cell line HCC70): 11 µM
- GI50 ([1]; HCC202, cell line HCC202, censored GI50 values): 0.759 µM
- GI50 ([1]; HCC202, cell line HCC202): 0.759 µM
- GI50 ([1]; HCC1143, cell line HCC1143): 16.6 µM
- GI50 ([1]; HCC1187, cell line HCC1187): 16.6 µM
- GI50 ([1]; HCC1395, cell line HCC1395): 16.6 µM
- GI50 ([1]; HCC1419, cell line HCC1419, censored GI50 values): 0.269 µM
- GI50 ([1]; HCC1419, cell line HCC1419): 0.269 µM
- GI50 ([1]; HCC1428, cell line HCC1428): 16.6 µM
- GI50 ([1]; HCC1500, cell line HCC1500): 16.6 µM
- GI50 ([1]; HCC1806, cell line HCC1806): 16.6 µM
- GI50 ([1]; HCC1937, cell line HCC1937): 16.6 µM
- GI50 ([1]; HCC1954, cell line HCC1954, censored GI50 values): 2.75 µM
- GI50 ([1]; HCC1954, cell line HCC1954): 2.75 µM
- GI50 ([1]; MCF7, cell line MCF7): 16.6 µM
- GI50 ([1]; MDA-MB-157, cell line MDAMB157): 16.6 µM
- GI50 ([1]; MDA-MB-175-VII, cell line MDAMB175VII, censored GI50 values): 0.933 µM
- GI50 ([1]; MDA-MB-231, cell line MDAMB231): 16.6 µM
- GI50 ([1]; MDA-MB-361, cell line MDAMB361, censored GI50 values): 8.91 µM
- GI50 ([1]; MDA-MB-361, cell line MDAMB361): 8.91 µM
- GI50 ([1]; MDA-MB-436, cell line MDAMB436): 16.6 µM
- GI50 ([1]; MDA-MB-453, cell line MDAMB453, censored GI50 values): 8.91 µM
- GI50 ([1]; MDA-MB-453, cell line MDAMB453): 8.91 µM
- GI50 ([1]; MDA-MB-468, cell line MDAMB468): 16.6 µM
- GI50 ([1]; SK-BR-3, cell line SKBR3, censored GI50 values): 0.513 µM
- GI50 ([1]; SK-BR-3, cell line SKBR3): 0.513 µM
- GI50 ([1]; SUM52PE, cell line SUM52PE): 16.6 µM
- GI50 ([1]; SUM225CWN, cell line SUM225CWN, censored GI50 values): 0.692 µM
- GI50 ([1]; SUM225CWN, cell line SUM225CWN): 0.692 µM
- GI50 ([1]; T47D, cell line T47D): 16.6 µM
- GI50 ([1]; UACC-812, cell line UACC812, censored GI50 values): 0.457 µM
- GI50 ([1]; UACC-812, cell line UACC812): 0.457 µM
- GI50 ([1]; UACC-893, cell line UACC893, censored GI50 values): 1.82 µM
- GI50 ([1]; UACC-893, cell line UACC893): 1.82 µM
- GI50 ([1]; ZR-75-1, cell line ZR751): 16.6 µM
- GI50 ([1]; ZR-75B, cell line ZR75B): 16.6 µM
- GI50 ([1]; cell line 600MPE): 16.6 µM
- GI50 ([1]; cell line HCC2185, censored GI50 values): 3.8 µM
- GI50 ([1]; cell line HCC2185): 3.8 µM
- GI50 ([1]; cell line HCC3153): 16.6 µM
- GI50 ([1]; cell line MDAMB175V): 0.933 µM
- GI50 ([1]; cell line SUM1315MO): 15.5 µM
- Subtype specificity [2]: Luminal/ERBB2AMP
